# Results as given in patent US10894788B2, “Inhibitors of cyclin-dependent kinases” (Kinnate Biopharma Inc., priority 2018, dated 2021).
# Target: CDK12 wt/CycK (Homo sapiens (Human), UniProt Q9NYV4)
# Assay: Radiometric protein kinase assay (33PanQinase Activity Assay), Assay Condition A (thiol containing conditions)
# Assay type: biochemical
# Settings: not given
# In short: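 Recombinant human kinase incubated with [33P]ATP, substrate and compound (10 concentrations, 1×10^−04M to 3×10^−09M, singlicate, 1% DMSO) under thiol-containing buffer conditions, 60 min at 30 °C. 33Pi incorporation counted by scintillation; residual activity normalised to no-inhibitor and no-kinase controls, IC50 derived.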
# Chain of CDK12 wt/CycK (Q9NYV4 whole entry): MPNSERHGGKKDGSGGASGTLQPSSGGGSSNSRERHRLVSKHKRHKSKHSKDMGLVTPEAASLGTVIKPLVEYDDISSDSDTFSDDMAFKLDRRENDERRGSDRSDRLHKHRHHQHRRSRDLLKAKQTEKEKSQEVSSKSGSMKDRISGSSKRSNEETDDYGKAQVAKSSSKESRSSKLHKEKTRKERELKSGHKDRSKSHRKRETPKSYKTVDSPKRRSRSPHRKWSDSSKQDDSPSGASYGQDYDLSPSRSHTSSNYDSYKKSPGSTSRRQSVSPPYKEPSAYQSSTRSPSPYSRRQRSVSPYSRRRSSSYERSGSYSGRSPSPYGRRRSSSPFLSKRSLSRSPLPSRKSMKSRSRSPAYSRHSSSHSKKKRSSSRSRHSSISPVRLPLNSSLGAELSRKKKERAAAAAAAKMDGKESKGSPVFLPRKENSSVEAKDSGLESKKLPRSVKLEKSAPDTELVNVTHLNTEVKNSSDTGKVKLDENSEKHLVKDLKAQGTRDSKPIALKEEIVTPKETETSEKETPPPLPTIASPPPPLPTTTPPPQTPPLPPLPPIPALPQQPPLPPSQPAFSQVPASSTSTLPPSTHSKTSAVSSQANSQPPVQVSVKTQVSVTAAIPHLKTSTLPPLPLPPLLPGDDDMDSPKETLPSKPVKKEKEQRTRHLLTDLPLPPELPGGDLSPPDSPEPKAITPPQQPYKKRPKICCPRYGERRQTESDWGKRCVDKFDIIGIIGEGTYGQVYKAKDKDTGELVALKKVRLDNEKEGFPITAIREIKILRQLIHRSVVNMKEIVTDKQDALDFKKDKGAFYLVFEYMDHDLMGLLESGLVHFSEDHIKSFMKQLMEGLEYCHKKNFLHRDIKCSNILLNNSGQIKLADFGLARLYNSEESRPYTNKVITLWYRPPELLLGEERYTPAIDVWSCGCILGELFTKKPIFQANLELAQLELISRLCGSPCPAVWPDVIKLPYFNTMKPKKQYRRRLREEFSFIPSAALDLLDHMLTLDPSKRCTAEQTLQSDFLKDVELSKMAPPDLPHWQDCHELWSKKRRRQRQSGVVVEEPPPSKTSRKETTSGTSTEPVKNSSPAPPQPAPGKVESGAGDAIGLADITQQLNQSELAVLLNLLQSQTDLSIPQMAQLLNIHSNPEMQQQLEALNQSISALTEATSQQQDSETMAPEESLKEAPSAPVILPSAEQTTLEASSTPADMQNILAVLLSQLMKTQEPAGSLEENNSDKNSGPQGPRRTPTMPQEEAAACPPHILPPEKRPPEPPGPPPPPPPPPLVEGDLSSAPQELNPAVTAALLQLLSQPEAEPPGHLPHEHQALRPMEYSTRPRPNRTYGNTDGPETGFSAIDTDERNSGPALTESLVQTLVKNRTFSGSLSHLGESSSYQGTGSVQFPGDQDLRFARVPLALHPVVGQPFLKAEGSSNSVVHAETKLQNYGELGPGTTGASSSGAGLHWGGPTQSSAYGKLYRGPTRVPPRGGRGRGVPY
# Chain of CDK12 wt/CycK (O75909 whole entry partner): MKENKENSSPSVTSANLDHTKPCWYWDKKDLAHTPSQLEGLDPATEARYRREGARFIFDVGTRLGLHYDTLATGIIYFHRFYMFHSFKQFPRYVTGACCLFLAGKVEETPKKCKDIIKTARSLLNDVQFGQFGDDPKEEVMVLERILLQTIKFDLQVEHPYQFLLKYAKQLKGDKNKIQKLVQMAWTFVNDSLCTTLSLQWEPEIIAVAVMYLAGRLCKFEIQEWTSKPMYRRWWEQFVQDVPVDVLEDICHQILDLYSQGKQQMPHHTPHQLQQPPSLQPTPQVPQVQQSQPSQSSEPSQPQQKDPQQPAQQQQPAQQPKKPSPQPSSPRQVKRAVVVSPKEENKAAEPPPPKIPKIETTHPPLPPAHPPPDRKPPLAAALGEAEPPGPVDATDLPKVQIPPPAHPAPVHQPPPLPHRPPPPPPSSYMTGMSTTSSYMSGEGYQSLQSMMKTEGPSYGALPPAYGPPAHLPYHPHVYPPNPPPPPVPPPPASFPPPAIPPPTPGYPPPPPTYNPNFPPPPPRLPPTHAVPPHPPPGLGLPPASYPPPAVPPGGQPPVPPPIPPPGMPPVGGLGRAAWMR
row,SMILES,IC50
1,"C=CC(=O)Nc1ccc(C(=O)N2CC[C@@H](Nc3ncc(C#N)cn3)C2)cc1OCCN(C)C [Example 166, (R)—N-(4-(3-((5-cyanopyrimidin-2-yl)amino)pyrrolidine-1-carbonyl)-2-(2-(dimethylamino)ethoxy)phenyl)acrylamide]",100 to 1000 nM
2,"C=CC(=O)Nc1ccc(C(=O)N2CC[C@@H](Nc3ccc(C#N)cn3)C2)cc1 [Example 147, (R)—N-(4-(3-((5-cyanopyridin-2-yl)amino)pyrrolidine-1-carbonyl)phenyl)acrylamide]",100 to 1000 nM

# Same assay, conditions: thiol containing conditions (1.2 mM DTT), ATP 0.3 μM; read-out: CDK12 IC50 Condition A
row,IC50,SMILES
1,1000 to 10000 nM,"CN(C)C=C(C#N)C(=O)Nc1cccc(C(=O)N2CC[C@@H](Nc3ncc(Cl)cn3)C2)c1 [Example 135, (R)—N-(3-(3-((5-chloropyrimidin-2-yl)amino)pyrrolidine-1-carbonyl)phenyl)-2-cyano-3-(dimethylamino)acrylamide]"
2,< 100 nM,"C=CC(=O)Nc1ccc(C(=O)N2CC[C@@H](Nc3ncc(Cl)c(C(F)(F)F)n3)C2)cc1 [Example 92, (R)—N-(4-(3-((5-chloro-4-(trifluoromethyl)pyrimidin-2-yl)amino)pyrrolidine-1-carbonyl)phenyl)acrylamide]"
3,100 to 1000 nM,"C/C=C/C(=O)Nc1ccc(C(=O)N2CC[C@@H](Nc3ncc(Cl)c(OC)n3)C2)nc1 [Example 150, (R,E)-N-(6-(3-((5-chloro-4-methoxypyrimidin-2-yl)amino)pyrrolidine-1-carbonyl)pyridin-3-yl)but-2-enamide]"
4,1000 to 10000 nM,"C=CC(=O)Nc1cc(C(=O)N2CC[C@@H](Nc3ncc(Cl)cn3)C2)nn1C [Example 110, (R)—N-(3-(3-((5-chloropyrimidin-2-yl)amino)pyrrolidine-1-carbonyl)-1-methyl-1H-pyrazol-5-yl)acrylamide]"
5,100 to 1000 nM,"CN(C)/C=C(\C#N)C(=O)Nc1ccc(C(=O)N2CC[C@@H](Nc3ncc(Cl)cn3)C2)cc1 [Example 134, (R)—N-(4-(3-((5-chloropyrimidin-2-yl)amino)pyrrolidine-1-carbonyl)phenyl)-2-cyano-3-(dimethylamino)acrylamide]"
6,100 to 1000 nM,"COc1nc(N[C@@H]2CCN(C(=O)c3ccc(NC(=O)/C=C/CN(C)C)c(C)c3)C2)ncc1Cl [Example 117, (R,E)-N-(4-(3-((5-chloro-4-methoxypyrimidin-2-yl)amino)pyrrolidine-1-carbonyl)-2-methylphenyl)-4-(dimethylamino)but-2-enamide]"
7,100 to 1000 nM,"C=CC(=O)Nc1ccc(C(=O)N2CC[C@@H](Nc3ncc(C4CC4)c(OC)n3)C2)cc1 [Example 99, (R)—N-(4-(3-((5-cyclopropyl-4-methoxypyrimidin-2-yl)amino)pyrrolidine-1-carbonyl)phenyl)acrylamide]"
8,10000 to 30000 nM,"C=CC(=O)Nc1cccc(C(=O)N2CCC[C@@H](Nc3ncc(Cl)c(OC)n3)C2)c1 [Example 106, (R)—N-(3-(3-((5-chloro-4-methoxypyrimidin-2-yl)amino)piperidine-1-carbonyl)phenyl)acrylamide]"
9,100 to 1000 nM,"C=CC(=O)Nc1nc(C(=O)N2CCC[C@@H](Nc3ncc(Cl)c(OC)n3)C2)cs1 [Example 101, (R)—N-(4-(3-((5-chloro-4-methoxypyrimidin-2-yl)amino)piperidine-1-carbonyl)thiazol-2-yl)acrylamide]"

row,SMILES,IC50
1,"CC#CC(=O)Nc1ccc(C(=O)N2CC[C@@H](Nc3ncc(Cl)c(OC)n3)C2)cc1 [Example 151, (R)—N-(4-(3-((5-chloro-4-methoxypyrimidin-2-yl)amino)pyrrolidine-1-carbonyl)phenyl)but-2-ynamide]",< 100 nM
2,"COc1nc(N[C@@H]2CCN(C(=O)c3ccc(NC(=O)/C=C/CN4CC[C@@H](F)C4)cc3)C2)ncc1Cl [Example 167, (E)-N-(4-((R)-3-((5-chloro-4-methoxypyrimidin-2-yl)amino)pyrrolidine-1-carbonyl)phenyl)-4-((R)-3-fluoropyrrolidin-1-yl)but-2-enamide]",< 100 nM
3,"C#CC(=O)Nc1ccc(C(=O)N2CC[C@@H](Nc3ncc(Cl)cn3)C2)cc1 [Example 125, (R)—N-(4-(3-((5-chloropyrimidin-2-yl)amino)pyrrolidine-1-carbonyl)phenyl)propiolamide]",< 100 nM

# Target: CDK12 (Homo sapiens (Human), UniProt Q9NYV4)
# Assay: Radiometric protein kinase assay (33PanQinase Activity Assay), Assay Condition B (thiol-free conditions)
# Assay type: biochemical
# Settings: thiol-free conditions (1 mM TCEP, glutathione removed)
# Description: Example 2—Assay Condition B (Thiol-Free Conditions)
# The IC50 profile of compounds was determined using one protein kinase in a customized, thiol free assay. […] Prior to testing, the 1×10^−03 M stock solutions in column 2 of the master plates were subjected to a serial, semi-logarithmic dilution using 100% DMSO as a solvent. […] Column 1 and 7 were filled with 100% DMSO as controls. Subsequently, 2×10 microliter from each well of the serial diluted copy plates were aliquoted with a 96 channel pipettor into two identical sets of “compound dilution plates”. All plates were barcoded for automated identification and tracking purposes. […] All compounds were stored as powder until being solubilized in DMSO. Solubilized compounds were stored as 1×10^−02 M/100% DMSO stock solutions. Prior to the assay process, 90 microliters of H2O were added to each well of a set of compound dilution plates. To minimize potential precipitation, the H2O was added to each plate only a few minutes before the transfer of the compound solutions into the assay plates. Each plate was shaken thoroughly, resulting in compound dilution plates with a final of 10% DMSO. For each assay, 5 microliters of solution from each well of the compound dilution plates/10% DMSO were transferred into the assay plate. The final volume of the assay was 50 μl. All compounds were tested at 10 final assay concentrations in the range from 1×10^−05 M to 3×10^−10 M, in singlicate. The final DMSO concentration in the reaction cocktails was 1% in all cases. A radiometric protein kinase assay (33PanQinase® Activity Assay) was used for measuring the kinase activity of the protein kinase. All kinase assays were performed in 96-well FlashPlates™ from PerkinElmer (Boston, Mass., USA) in a 50 microliter reaction volume. The reaction cocktail was pipetted in four steps in the following order: 20 microliter of assay buffer (standard buffer)·5 microliter of ATP solution (in H2O)·5 microliter of test compound (in 10% DMSO)·20 microliter enzyme/substrate mix. […] For all experiments labeled as “Thiol-free”, all glutathione was exchanged from protein preparations so as to be removed from the assay and final buffer conditions contained no thiol-containing reagents. This was done so there would be no interference with the key cysteines in the proteins of interest.
# For data analysis, the median value of the counts in column 1 (n=8) of each assay plate was defined as “low control”. This value reflects unspecific binding of radioactivity to the plate in the absence of a protein kinase but in the presence of the substrate. The median value of the counts in column 7 of each assay plate (n=8) was taken as the “high control”, i.e. full activity in the absence of any inhibitor. The difference between high and low control was taken as 100% activity. As part of the data evaluation the low control value from a particular plate was subtracted from the high control value as well as from all 80 “compound values” of the corresponding plate. The residual activity (in %) for each well of a particular plate was calculated by using the following formula: Res. Activity (%)=100×[(cpm of compound−low control)/(high control−low control)]
# The residual activities for each concentration and the compound IC50 values were calculated using Quattro Workflow V3.1.1 (Quattro Research GmbH, Munich, Germany; www.quattro-research.com). […] The fitting method used was a least-squares fit. As a parameter for assay quality, the Z′-factor (Zhang et al., J. Biomol. Screen. 2: 67-73, 1999) for the low and high controls of each assay plate (n=8) was used. ProQinase's criterion for repetition of an assay plate is a Z′-factor below 0.4 (Iversen et al., J. Biomol. Screen. 3: 247-252, 2006).
# Chain of CDK12 (Q9NYV4 whole entry): as the sequence (Q9NYV4 whole entry) above
# Chain of CDK12 (O75909 whole entry partner): as the sequence (O75909 whole entry partner) above
row,IC50,SMILES
1,< 100 nM,"C=CC(=O)Nc1ccc(C(=O)N2CC[C@@H](Nc3ncc(Cl)c(OC4CC4)n3)C2)cc1 [Example 56, (R)—N-(4-(3-((5-chloro-4-cyclopropoxypyrimidin-2-yl)amino)pyrrolidine-1-carbonyl)phenyl)acrylamide]"
2,30000 to 100000 nM,"C=CC(=O)Nc1ccc(C(=O)N2CCC[C@@H](Nc3nccc(-c4cnn(C)c4)n3)C2)cc1 [Example 39, (R)—N-(4-(3-((4-(1-methyl-1H-pyrazol-4-yl)pyrimidin-2-yl)amino)piperidine-1-carbonyl)phenyl)acrylamide]"
3,< 100 nM,"C=CC(=O)Nc1ccc(C(=O)N2CC[C@@H](Nc3ncc(Cl)c(OC)n3)C2)cc1N1CCOCC1 [Example 10, (R)—N-(4-(3-((5-chloro-4-methoxypyrimidin-2-yl)amino)pyrrolidine-1-carbonyl)-2-morpholinophenyl)acrylamide]"
4,1000 to 10000 nM,"C=CC(=O)Nc1ccc(C(=O)N2CC[C@@H](Nc3nccc(Oc4cnn(C)c4)n3)C2)cc1 (stereo in doubt) [Example 46, N-(4-{3-[4-(1-Methyl-1H-pyrazol-4-yloxy)-pyrimidin-2-ylamino]-pyrrolidine-1-carbonyl}-phenyl)-acrylamide]"
5,30000 to 100000 nM,"C=CC(=O)Nc1ccc(C(=O)N2CCC[C@@H](Nc3nccc(N4CCOCC4)n3)C2)cc1 [Example 36, (R)—N-(4-(3-((4-morpholinopyrimidin-2-yl)amino)piperidine-1-carbonyl)phenyl)acrylamide]"
6,100 to 1000 nM,"C=CC(=O)Nc1ccc(C(=O)N2CC[C@@H](Nc3nccc(-c4cncs4)n3)C2)cc1 (stereo in doubt) [Example 48, N-{4-[3-(4-Thiazol-5-yl-pyrimidin-2-ylamino)-pyrrolidine-1-carbonyl]-phenyl}-acrylamide]"
7,1000 to 10000 nM,CCC(=O)Nc1ccc(C(=O)N2CC[C@@H](Nc3nccc(-c4cn[nH]c4)n3)C2)cc1 [Example 43]
8,100 to 1000 nM,"C=CS(=O)(=O)Nc1ccc(C(=O)N2CC[C@@H](Nc3ncc(Cl)cn3)C2)cc1 [Example 84, (R)—N-(4-(3-((5-chloropyrimidin-2-yl)amino)pyrrolidine-1-carbonyl)phenyl)ethenesulfonamide]"
9,< 100 nM,"C=CC(=O)N1CCc2cc(C(=O)N3CC[C@@H](Nc4ncc(Cl)cn4)C3)ccc21 [Example 30, (R)-1-(5-(3-((5-chloropyrimidin-2-yl)amino)pyrrolidine-1-carbonyl)indolin-1-yl)prop-2-en-1-one]"
10,< 100 nM,"C=CC(=O)Nc1ccc(C(=O)N2CC[C@@H](Nc3ncc(Cl)cn3)C2)cc1Cl [Example 6, (R)-N-(2-chloro-4-(3-((5-chloropyrimidin-2-yl)amino)pyrrolidine-1-carbonyl)phenyl)acrylamide]"
11,100 to 1000 nM,"C#Cc1cnc(N[C@@H]2CCN(C(=O)c3ccc(N(C)C(=O)C=C)cc3)C2)nc1 [Example 113, (R)—N-(4-(3-((5-ethynylpyrimidin-2-yl)amino)pyrrolidine-1-carbonyl)phenyl)-N-methylacrylamide]"

row,SMILES,IC50
1,"C=CC(=O)Nc1ccc(C(=O)N2CC[C@@H](Nc3ncc(Br)cn3)C2)cc1C [Example 76, (R)—N-(4-(3-((5-bromopyrimidin-2-yl)amino)pyrrolidine-1-carbonyl)-2-methylphenyl)acrylamide]",< 100 nM
